From patent US20240124439A1, “Pyrido[2,3-D]Imidazole Derivatives and Their Use As Inhibitors of ITK for the Treatment of Skin Disease” (Pfizer Inc., priority 2020, published 2024) come the findings set out here.

For assay [1], the target named is IL-2-Inducible T-Cell Kinase (ITK) (Homo sapiens (Human), UniProt Q08881). The assay is described as follows: ITK enzyme assay (IL-2-inducible T-cell kinase activity). The class given is biochemical. The settings on record: geometric mean of count n. Here is the method:
ITK activity was determined by measuring the effect of a test compound in an ITK enzyme assay.
1.0 M HEPES Buffer pH 7.5 solution was prepared as follows: 238.3 g HEPES free acid (Sigma) and 800 mL of water were combined, and the mixture was stirred until complete dissolution. The pH was adjusted to 7.5 via titration with 5N NaOH and the volume adjusted to 1000 mL. The solution was filtered and sterilized.
ITK assay buffer was prepared as follows: 50 mL of HPLC-grade water was treated with 2 mL of 1.0 M HEPES Buffer, 500 μL of 2% Gelatin (Sigma), 1.0 mL of aqueous MgCl2 solution (1.0 M), and 1.0 mL of aqueous glutathione solution (0.5 M), and the solution was mixed. The solution was brought to 99 mL in a graduated cylinder by addition of water and sterilized through a 0.2 μm filter. 0.1 mL of Brij-35™ Surfact-Amps™ Detergent Solution (10% w/v aqueous solution, ThermoFisher) and 1.0 mL of ATP (Teknova,100 mM) were added and the solution was mixed.
Preparation of 1.33× ITK enzyme solution was as follows: 49.99 mL of ITK assay buffer was treated with 4.1 μL of ITK enzyme (ITK FL (N-Flag and C-His tagged, […]) Lake Pharma, 0.25 mg/ml in a buffer containing 25 mM Tris pH 7.8, 150 mM NaCl, 10% glycerol and 2 mM TCEP) and the mixture was gently agitated. The resulting solution was stored on ice. 30 Minutes prior to use, the enzyme solution was removed from ice and equilibrated to RT by incubation in a RT water bath.
Preparation of 4× ITK substrate solution was as follows: 50 mL of ITK assay buffer was treated with 100 μL of BTK peptide (China Peptide Company, 2 mM stock solution in DMSO). The tube was capped, mixed by gently inverting the tube, and then stored on ice. 30 Minutes prior to use, the substrate solution was removed from ice and equilibrated to RT by incubation in a RT water bath.
At the time of assay, 7.5 μL of the 1.33× ITK enzyme solution was added to plate wells containing 0.1 μL of varying concentrations of test compound in DMSO. The plate was incubated 30 min at RT. The plate wells were each treated with 2.5 uL of the 4× ITK substrate solution and the plate was sealed (TopSeal™, Perkin Elmer). The plate was spun at 1000 rpm for 30 sec and then incubated for 60 min at RT. The seal was removed, and each well was treated with 10 μL of Stop/Detect Buffer (20 mM HEPES pH 7.5, 0.01% gelatin, 1 nM LANCE PT66 (Perkin Elmer), 16.5 μg/ml Surelight APC (Perkin Elmer), 10 mM EDTA, 250 mM NaCl). The plate was again covered and was spun at 1000 rpm for […]. The plate was allowed to incubate overnight at RT and in a closed carrier to reduce dehydration. The seal was removed, and the fluorescence was read with a plate reader with an excitation wavelength of […]. The concentrations and resulting effect values for the tested compound were plotted and the concentration of compound required for 50% effect (IC50) was determined with the four-parameter logistic dose response equation.

The test system of assay [2] is activated CD4+ human T-cells (IL-2). Nature of the assay: IL-2 inhibition in supernatants from activated CD4+ human T-cells (cisbio HTRF). The assay is classed as cell-based. The settings on record: T-cell; CD3/CD28-activated CD4+ human T cells, ImmunoCult stimulation 20 to 24 hrs; geometric mean of count n. As for the experimental part:
IL-2 inhibition activity in supernatants from activated CD4+ human T-cells was determined by measuring the effect of a test compound on the activity using the cisbio HTRF™ technology.
Human CD4+ T cells were activated with CD3/CD28 for 3 days and expanded for an additional 4-6 days (7 to 9 days total). On day 0, frozen CD4+ T cells were thawed, treated with CD3/CD28 Dynabeads, and incubated at 37° C./5% CO2. On day 3, the beads were removed, and the cells were diluted to 5×10^5 cells/cm^2, placed in G-Rex10 flask, and incubated at 37° C./5% CO2. On day 7 to day 9 the cells were removed from the G-Rex flasks, counted and diluted back to 1×10^6 cells/ml in standard tissue culture flask.
The expanded CD4+ T-cells were centrifuged at 300×g for 10 minutes and resuspended to 0.5 million cells per ml (30,000 cells/well). 60 μl of CD4+ T cells were added per well to a 384 well plate containing 0.1 μL of varying concentrations of test compound in DMSO. The plates were incubated for 15 min at 37° C./5% CO2. 20 μl of diluted ImmunoCult™ (STEMCELL Technologies, 1:12.5 in T cell assay media) were added to all wells of the plate (1:50 final assay concentration). The plates were incubated for an additional 20 to 24 hrs at 37° C./5% CO2. The plates were centrifuged at 300×g for 10 minutes. 16 μL of supernatant was removed and combined with 4 μl of IL-2 HTRF Abs. (cisbio kit). Plates were incubated for 3 hours at RT and read with an EnVision plate reader at 665 nm and 615 nm wavelengths. The concentrations and resulting effect values for the tested compound were plotted and the concentration of compound required for 50% effect (IC50) was determined with the four-parameter logistic dose response equation.

IL-2-Inducible T-Cell Kinase (ITK), sequence (Q08881 whole entry): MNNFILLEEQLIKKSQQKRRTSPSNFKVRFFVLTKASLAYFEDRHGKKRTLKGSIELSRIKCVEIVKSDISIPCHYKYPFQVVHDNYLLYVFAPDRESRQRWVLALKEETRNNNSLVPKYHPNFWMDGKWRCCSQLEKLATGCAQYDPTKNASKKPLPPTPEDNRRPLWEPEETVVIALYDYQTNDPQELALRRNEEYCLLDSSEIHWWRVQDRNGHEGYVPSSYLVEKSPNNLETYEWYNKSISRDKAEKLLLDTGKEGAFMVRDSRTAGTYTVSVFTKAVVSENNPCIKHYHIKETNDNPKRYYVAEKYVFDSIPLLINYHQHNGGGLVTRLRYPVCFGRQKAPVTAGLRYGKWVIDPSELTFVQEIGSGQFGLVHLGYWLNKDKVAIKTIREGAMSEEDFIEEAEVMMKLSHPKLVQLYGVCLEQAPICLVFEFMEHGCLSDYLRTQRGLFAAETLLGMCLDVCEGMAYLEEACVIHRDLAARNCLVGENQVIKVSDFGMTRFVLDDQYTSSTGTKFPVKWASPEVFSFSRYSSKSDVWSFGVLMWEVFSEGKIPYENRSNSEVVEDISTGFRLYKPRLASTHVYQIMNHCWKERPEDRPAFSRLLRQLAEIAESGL

Take `C[C@@H](C(=O)N(C)c1cnc2[nH]c(-c3n[nH]c4c3C[C@@H]3C[C@]3(C)C4)nc2c1)N1CC2CC(C1)O2` (single isomer, unassigned) [Example 41]: the results for the 50% inhibitory concentration (IC50) in assay [1] and in assay [2] were 116 nM and 600 nM, respectively. For `C[C@H](C(=O)N(C)c1cnc2[nH]c(-c3n[nH]c4c3C[C@@H]3C[C@]3(C)C4)nc2c1)N1CC2CC(C1)O2` (single isomer, unassigned) [Example 42], in that order: 21 nM and 143 nM. Take `CC(C)[C@@H](C(=O)N(C)c1cnc2[nH]c(-c3n[nH]c4c3CC3C[C@]3(C)C4)nc2c1)N1CCOCC1` (stereo in doubt) [Example 3, (S)-N,3-Dimethyl-N-(2-((4aR,5aR)-5a-methyl-1,4,4a,5,5a,6-hexahydrocyclopropa[f]indazol-3-yl)-3H-imidazo[4,5-b]pyridin-6-yl)-2-morpholinobutanamide]: the concentration for half-maximal inhibition (IC50) in assay [1] turned out to be 38 nM; in assay [2], 320 nM. As to `CC[C@@H](C(=O)N(C)c1cnc2[nH]c(-c3n[nH]c4c3C[C@@H]3C[C@]3(C)C4)nc2c1)N1CCOCC1` [Example 4, (S)-N-Methyl-N-(2-((4aS,5aR)-5a-methyl-1,4,4a,5,5a,6-hexahydrocyclopropa[f]indazol-3-yl)-3H-imidazo[4,5-b]pyridin-6-yl)-2-morpholinobutanamide], the 50% inhibitory concentration (IC50) in assay [1] worked out at 38 nM; in assay [2], 205 nM. For `CN(C(=O)C(F)(F)C1CCOCC1)c1cnc2nc(-c3n[nH]c4c3CCC(C)(C)C4)[nH]c2c1` [Example 5, N-(2-(6,6-Dimethyl-4,5,6,7-tetrahydro-1H-indazol-3-yl)-1H-imidazo[4,5-b]pyridin-6-yl)-2,2-difluoro-N-methyl-2-(tetrahydro-2H-pyran-4-yl)acetamide], the values for the IC50 in assay [1] and in assay [2] were 14 nM and 375 nM, respectively. On to `CN(C(=O)Cn1cccn1)c1cnc2nc(-c3n[nH]c4c3C[C@@H]3C[C@]3(C)C4)[nH]c2c1` [Example 6, N-Methyl-N-(2-((4aS,5aR)-5a-methyl-1,4,4a,5,5a,6-hexahydrocyclopropa[f]indazol-3-yl)-1H-imidazo[4,5-b]pyridin-6-yl)-2-(1H-pyrazol-1-yl)acetamide], for which the results for the 50% inhibitory concentration (IC50) in assay [1] and in assay [2] were 26 nM and 343 nM, respectively. The molecule `CC(C)(C(=O)Nc1cnc2[nH]c(-c3n[nH]c4c3C[C@@H]3C[C@]3(C)C4)nc2c1)N1CCOCC1` [Example 16, 2-Methyl-N-(2-((4aS,5aR)-5a-methyl-1,4,4a,5,5a,6-hexahydrocyclopropa[f]indazol-3-yl)-3H-imidazo[4,5-b]pyridin-6-yl)-2-morpholinopropanamide] gave an IC50 in assay [2] of 2110 nM. Regarding `CC(C(=O)N(C)c1cnc2[nH]c(-c3n[nH]c4c3C[C@@H]3C[C@]3(C)C4)nc2c1)N1CCOCC1` (stereo partly drawn) [Example 27, N-Methyl-N-(2-((4aS,5aR)-5a-methyl-1,4,4a,5,5a,6-hexahydrocyclopropa[f]indazol-3-yl)-3H-imidazo[4,5-b]pyridin-6-yl)-2-morpholinopropanamide], the 50% inhibitory concentration (IC50) in assay [1] turned out to be 62 nM. This counts as double-digit nanomolar.

For the molecule `C[C@@H](C(=O)Nc1ccc2[nH]c(-c3n[nH]c4c3CCC(C)(C)C4)nc2c1)N1CCOCC1` [Example 33, (S)-N-(2-(6,6-Dimethyl-4,5,6,7-tetrahydro-1H-indazol-3-yl)-1H-benzo[d]imidazol-5-yl)-2-morpholinopropanamide], in assay [2], the IC50 came out at 315 nM. On the same count and under the same terms, the same measure for `CCc1nc2[nH]c(-c3n[nH]c4c3C[C@@H]3C[C@]3(C)C4)nc2cc1N(C)C(=O)CN1CCOCC1` [Example 37, N-(5-Ethyl-2-((4aS,5aR)-5a-methyl-1,4,4a,5,5a,6-hexahydrocyclopropa[f]indazol-3-yl)-3H-imidazo[4,5-b]pyridin-6-yl)-N-methyl-2-morpholinoacetamide]: 815 nM. The same measure, in the same setting: as for `CN(C(=O)CC1CC(F)(F)C1)c1cnc2nc(-c3n[nH]c4c3C[C@@H]3C[C@]3(C)C4)[nH]c2c1` [Example 48, 2-(3,3-Difluorocyclobutyl)-N-methyl-N-(2-((4aS,5aR)-5a-methyl-1,4,4a,5,5a,6-hexahydrocyclopropa[f]indazol-3-yl)-1H-imidazo[4,5-b]pyridin-6-yl)acetamide], the figure is 326 nM. On the same count and under the same terms, as for `CN(C(=O)CC1CC2(CCC2)C1)c1cnc2nc(-c3n[nH]c4c3C[C@@H]3C[C@]3(C)C4)[nH]c2c1` [Example 49, N-Methyl-N-(2-((4aS,5aR)-5a-methyl-1,4,4a,5,5a,6-hexahydrocyclopropa[f]indazol-3-yl)-1H-imidazo[4,5-b]pyridin-6-yl)-2-(spiro[3.3]heptan-2-yl)acetamide], the figure is 157 nM; as for `CN(C(=O)CC1CC2(C1)CC2(F)F)c1cnc2nc(-c3n[nH]c4c3C[C@@H]3C[C@]3(C)C4)[nH]c2c1` (stereo partly drawn) [Example 50, 2-(1,1-Difluorospiro[2.3]hexan-5-yl)-N-methyl-N-(2-((4aS,5aR)-5a-methyl-1,4,4a,5,5a,6-hexahydrocyclopropa[f]indazol-3-yl)-1H-imidazo[4,5-b]pyridin-6-yl)acetamide], 171 nM. In the case of `CN(C(=O)CC1CC2(C1)CC(F)(F)C2)c1cnc2nc(-c3n[nH]c4c3C[C@@H]3C[C@]3(C)C4)[nH]c2c1` [Example 54, 2-(6,6-Difluorospiro[3.3]heptan-2-yl)-N-methyl-N-(2-((4aS,5aR)-5a-methyl-1,4,4a,5,5a,6-hexahydrocyclopropa[f]indazol-3-yl)-1H-imidazo[4,5-b]pyridin-6-yl)acetamide], in assay [2], the IC50 was found to be 131 nM.

Regarding `CN(C(=O)C(C)(C)C1CCOCC1)c1cnc2[nH]c(-c3n[nH]c4c3CCC(C)(C)C4)nc2c1` [Example 93, N-(2-(6,6-Dimethyl-4,5,6,7-tetrahydro-1H-indazol-3-yl)-3H-imidazo[4,5-b]pyridin-6-yl)-N,2-dimethyl-2-(tetrahydro-2H-pyran-4-yl)propanamide], it took 333 nM to reach half-maximal inhibition in assay [1] (IC50). The same measure, in the same setting: as for `CN(C(=O)C1CC(C)(C)C1)c1cnc2[nH]c(-c3n[nH]c4c3CCC(C)(C)C4)nc2c1` [Example 96, N-(2-(6,6-Dimethyl-4,5,6,7-tetrahydro-1H-indazol-3-yl)-3H-imidazo[4,5-b]pyridin-6-yl)-N,3,3-trimethylcyclobutane-1-carboxamide], the figure is 311 nM; as for `CN(C(=O)C12CC(C1)C2)c1cnc2[nH]c(-c3n[nH]c4c3CCC(C)(C)C4)nc2c1` [Example 111, N-(2-(6,6-Dimethyl-4,5,6,7-tetrahydro-1H-indazol-3-yl)-3H-imidazo[4,5-b]pyridin-6-yl)-N-methylbicyclo[1.1.1]pentane-1-carboxamide], 416 nM.

By IC50 is commonly meant the midpoint of a concentration-inhibition curve. Low values mean higher potency, high ones lower potency.
